Results as given in patent publication US10131652B2, “Pyrimidinyloxy benzene derivatives as herbicides” (E. I. DU PONT DE NEMOURS AND COMPANY, priority 2014, dated 2018).
Where two headings read alike, the source gives them in different places.

Experiments:
Type in all cases: in vivo
[1] = system: Italian ryegrass (Lolium multiflorum); assay: Test B pre-/postemergence plant response
Outline: (§1)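 Seeds in loam–sand blend given preemergence soil spray; separately, plants at one- to two-leaf stage (2–10 cm) sprayed postemergence, compounds in non-phytotoxic solvent with surfactant. Injury rated visually versus untreated controls after ~10 days in greenhouse, 0 (no effect) to 100 (complete control).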

[2] = system: ragweed (common ragweed, Ambrosia elatior); assay: Test B pre-/postemergence plant response
Outline: as §1

kochia (Kochia scoparia) = assay: Test B pre-/postemergence plant response
Outline: as §1

corn (Zea mays) = assay: Test D pre-/postemergence plant response; conditions: Zea mays; for Corn plant response rating (crop injury, 0 = no effect, 100 = complete kill) at 62 g/ha: 62 g ai/ha
Outline: (§2)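 Greenhouse herbicidal response, both pre- and postemergence applications, with solvent/surfactant formulation. Postemergence plants were at 1- to 4-leaf stage. Visual scores 0–100 relative to controls, taken 13 to 15 days later.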

[3] = system: oilseed rape (Brassica napus); assay: Test D pre-/postemergence plant response; conditions: Brassica napus; for plant injury at 31 g/ha: 31 g ai/ha; for plant injury at 62 g/ha: 62 g ai/ha
Outline: as §2

[4] = system: Italian ryegrass (Lolium multiflorum); assay: Test D pre-/postemergence plant response; conditions: Lolium multiflorum; for pest or weed control at 31 g/ha: 31 g ai/ha; for pest or weed control at 62 g/ha: 62 g ai/ha; for pest or weed control at 125 g/ha: 125 g ai/ha
Outline: as §2

[5] = system: velvetleaf (Abutilon theophrasti); assay: Test D pre-/postemergence plant response; conditions: Abutilon theophrasti; for pest or weed control at 31 g/ha: 31 g ai/ha; for pest or weed control at 62 g/ha: 62 g ai/ha; for pest or weed control at 125 g/ha: 125 g ai/ha
Outline: as §2

[6] = system: lambsquarters (Chenopodium album); assay: Test D pre-/postemergence plant response; conditions: Chenopodium album; for pest or weed control at 31 g/ha: 31 g ai/ha; for pest or weed control at 62 g/ha: 62 g ai/ha; for pest or weed control at 125 g/ha: 125 g ai/ha
Outline: as §2

[7] = system: winter wheat (Triticum aestivum); assay: Test D pre-/postemergence plant response; conditions: Triticum aestivum; for plant injury at 31 g/ha: 31 g ai/ha; for plant injury at 62 g/ha: 62 g ai/ha; for plant injury at 125 g/ha: 125 g ai/ha
Outline: as §2

[8] = system: galium (catchweed bedstraw, Galium aparine); assay: Test D pre-/postemergence plant response; conditions: Galium; for pest or weed control at 31 g/ha: 31 g ai/ha; for pest or weed control at 62 g/ha: 62 g ai/ha; for pest or weed control at 125 g/ha: 125 g ai/ha
Outline: as §2

rice (Oryza sativa) = assay: Test C flooded paddy test plant response; conditions: Oryza sativa; Flood, 250 g ai/ha; scale of 0 to 100 where 0 is no effect and 100 is complete control; 13 to 15 days; read-out: Rice plant response rating
Outline: (§3)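 Two-leaf stage → flood to 3 cm → compound into water → hold depth, greenhouse 13–15 d → visual score vs controls (0 none, 100 complete control).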

[9] = system: small-flower umbrella sedge (Cyperus difformis); assay: Test C flooded paddy test plant response; conditions: Cyperus difformis; Flood, 250 g ai/ha; scale of 0 to 100 where 0 is no effect and 100 is complete control; 13 to 15 days; read-out: Sedge, Umbrella plant response rating
Outline: as §3

[10] = system: barnyardgrass (Echinochloa crus-galli); assay: Test C flooded paddy test plant response; conditions: Echinochloa crus-galli; Flood, 250 g ai/ha; scale of 0 to 100 where 0 is no effect and 100 is complete control; 13 to 15 days; read-out: Barnyardgrass plant response rating
Outline: as §3

[11] = system: ducksalad (Heteranthera limosa); assay: Test C flooded paddy test plant response; conditions: Heteranthera limosa; Flood, 250 g ai/ha; scale of 0 to 100 where 0 is no effect and 100 is complete control; 13 to 15 days; read-out: Ducksalad plant response rating
Outline: as §3

[12] = 31 g ai/ha, Preemergence, 0 to 100 scale where 0 is no effect and 100 is complete control
[13] = 125 g ai/ha, postemergence, 0 to 100 scale, 0 no effect, 100 complete control
[14] = Postemergence, 31 g ai/ha, 0 to 100 scale (0 no effect, 100 complete control)
[15] = Preemergence, 125 g ai/ha, 0 to 100 scale (0 no effect, 100 complete control)
[16] = pre-emergence, Preemergence, scale 0 to 100 (0 no effect, 100 complete control), read-out: Plant response rating, Oilseed Rape
[17] = post-emergence, Postemergence, scale 0 to 100, 0 no effect, 100 complete control, read-out: Plant response rating, Ryegrass, Italian
[18] = pre-emergence, Preemergence, scale 0 to 100 (0 no effect, 100 complete control), read-out: Plant response rating, Ryegrass, Italian
[19] = post-emergence, Postemergence, scale 0 to 100, 0 no effect, 100 complete control, read-out: Plant response rating, Velvetleaf
[20] = pre-emergence, Preemergence, scale 0 to 100 (0 no effect, 100 complete control), read-out: Plant response rating, Velvetleaf
[21] = post-emergence, Postemergence, scale 0 to 100, 0 no effect, 100 complete control, read-out: Plant response rating, Lambsquarters
[22] = pre-emergence, Preemergence, scale 0 to 100 (0 no effect, 100 complete control), read-out: Plant response rating, Lambsquarters
[23] = post-emergence, Postemergence, scale 0 to 100, 0 no effect, 100 complete control, read-out: Plant response rating, Wheat
[24] = pre-emergence, Preemergence, scale 0 to 100 (0 no effect, 100 complete control), read-out: Plant response rating, Wheat
[25] = post-emergence, Postemergence, scale 0 to 100, 0 no effect, 100 complete control, read-out: Plant response rating, Galium
[26] = pre-emergence, Preemergence, scale 0 to 100 (0 no effect, 100 complete control), read-out: Plant response rating, Galium

Structure (SMILES): Fc1cccc(Oc2ncc(Cl)cn2)c1-c1cc(C(F)F)no1 [Compound 144, 5-chloro-2-[2-[3-(difluoromethyl)-5-isoxazolyl]-3-fluorophenoxy]pyrimidine]
- Plant response rating, Ryegrass, Italian [1, 12]: 0
- Plant response rating, Ryegrass, Italian [1, 13]: 100
- Plant response rating, Ryegrass, Italian [1, 14]: 20
- Ryegrass, Italian plant response rating [1, 15]: 90
- Plant response rating, Ragweed [2, 12]: 0
- Plant response rating, Ragweed [2, 13]: 60
- Plant response rating, Ragweed [2, 14]: 20
- Ragweed plant response rating [2, 15]: 50
- Plant response rating, Kochia (kochia (Kochia scoparia); [12]): 90
- Plant response rating, Kochia (kochia (Kochia scoparia); [13]): 100
- Plant response rating, Kochia (kochia (Kochia scoparia); [14]): 100
- Kochia plant response rating (kochia (Kochia scoparia); [15]): 100
- plant injury at 16 g/ha (corn (Zea mays); post-emergence, Postemergence, 16 g ai/ha, scale 0 to 100 (0 no effect, 100 complete control), read-out: Corn plant response rating): 5%
- plant injury at 31 g/ha (corn (Zea mays); post-emergence, Postemergence, 31 g ai/ha, scale 0 to 100 (0 no effect, 100 complete control), read-out: Corn plant response rating): 5%
- Corn plant response rating (crop injury, 0 = no effect, 100 = complete kill) at 62 g/ha (corn (Zea mays); post-emergence, Postemergence, scale 0 to 100, 0 no effect, 100 complete control): 10%
- Corn plant response rating (crop injury, 0 = no effect, 100 = complete kill) at 125 g/ha (corn (Zea mays); post-emergence, Postemergence, 125 g ai/ha, scale 0 to 100, 0 no effect, 100 complete control): 5%
- plant injury at 125 g/ha (corn (Zea mays); pre-emergence, Preemergence, 125 g ai/ha, read-out: Plant response rating (scale 0 to 100), Corn): 65%
- Corn plant response rating (crop injury, 0 = no effect, 100 = complete kill) at 16 g/ha (corn (Zea mays); pre-emergence, Preemergence, 16 g ai/ha, scale 0 to 100 (0 no effect, 100 complete control)): 0%
- Corn plant response rating (crop injury, 0 = no effect, 100 = complete kill) at 31 g/ha (corn (Zea mays); pre-emergence, Preemergence, 31 g ai/ha, scale 0 to 100 (0 no effect, 100 complete control)): 5%
- Corn plant response rating (crop injury, 0 = no effect, 100 = complete kill) at 62 g/ha (corn (Zea mays); pre-emergence, Preemergence, scale 0 to 100 (0 no effect, 100 complete control)): 15%
- plant injury at 31 g/ha ([3]; post-emergence, Postemergence, scale 0 to 100 (0 no effect, 100 complete control), read-out: Oilseed Rape plant response rating): 80%
- plant injury at 62 g/ha ([3]; post-emergence, Postemergence, scale 0 to 100, 0 no effect, 100 complete control, read-out: Plant response rating, Oilseed Rape): 95%
- plant injury at 125 g/ha ([3]; pre-emergence, Preemergence, 125 g ai/ha, read-out: Plant response rating (scale 0 to 100), Oilseed Rape): 100%
- plant injury at 16 g/ha ([3]; pre-emergence, Preemergence, 16 g ai/ha, scale 0 to 100 (0 no effect, 100 complete control), read-out: Plant response rating, Oilseed Rape): 98%
- plant injury at 31 g/ha [3, 16]: 100%
- plant injury at 62 g/ha [3, 16]: 100%
- pest or weed control at 31 g/ha ([4]; post-emergence, Postemergence, scale 0 to 100 (0 no effect, 100 complete control), read-out: Ryegrass, Italian plant response rating): 5%
- pest or weed control at 62 g/ha [4, 17]: 10%
- pest or weed control at 125 g/ha [4, 17]: 10%
- pest or weed control at 125 g/ha ([4]; pre-emergence, Preemergence, read-out: Plant response rating (scale 0 to 100), Ryegrass, Italian): 98%
- pest or weed control at 16 g/ha ([4]; pre-emergence, Preemergence, 16 g ai/ha, scale 0 to 100 (0 no effect, 100 complete control), read-out: Plant response rating, Ryegrass, Italian): 5%
- pest or weed control at 31 g/ha [4, 18]: 60%
- pest or weed control at 62 g/ha [4, 18]: 80%
- pest or weed control at 31 g/ha ([5]; post-emergence, Postemergence, scale 0 to 100 (0 no effect, 100 complete control), read-out: Velvetleaf plant response rating): 55%
- pest or weed control at 62 g/ha [5, 19]: 75%
- pest or weed control at 125 g/ha [5, 19]: 98%
- pest or weed control at 125 g/ha ([5]; pre-emergence, Preemergence, read-out: Plant response rating (scale 0 to 100), Velvetleaf): 100%
- pest or weed control at 16 g/ha ([5]; pre-emergence, Preemergence, 16 g ai/ha, scale 0 to 100 (0 no effect, 100 complete control), read-out: Plant response rating, Velvetleaf): 100%
- pest or weed control at 31 g/ha [5, 20]: 100%
- pest or weed control at 62 g/ha [5, 20]: 100%
- pest or weed control at 31 g/ha ([6]; post-emergence, Postemergence, scale 0 to 100 (0 no effect, 100 complete control), read-out: Lambsquarters plant response rating): 80%
- pest or weed control at 62 g/ha [6, 21]: 90%
- pest or weed control at 125 g/ha [6, 21]: 95%
- pest or weed control at 125 g/ha ([6]; pre-emergence, Preemergence, read-out: Plant response rating (scale 0 to 100), Lambsquarters): 100%
- pest or weed control at 16 g/ha ([6]; pre-emergence, Preemergence, 16 g ai/ha, scale 0 to 100 (0 no effect, 100 complete control), read-out: Plant response rating, Lambsquarters): 100%
- pest or weed control at 31 g/ha [6, 22]: 100%
- pest or weed control at 62 g/ha [6, 22]: 100%
- plant injury at 31 g/ha ([7]; post-emergence, Postemergence, scale 0 to 100 (0 no effect, 100 complete control), read-out: Wheat plant response rating): 10%
- plant injury at 62 g/ha [7, 23]: 10%
- plant injury at 125 g/ha [7, 23]: 10%
- plant injury at 125 g/ha ([7]; pre-emergence, Preemergence, read-out: Plant response rating (scale 0 to 100), Wheat): 25%
- plant injury at 16 g/ha ([7]; pre-emergence, Preemergence, 16 g ai/ha, scale 0 to 100 (0 no effect, 100 complete control), read-out: Plant response rating, Wheat): 0%
- plant injury at 31 g/ha [7, 24]: 5%
- plant injury at 62 g/ha [7, 24]: 25%
- pest or weed control at 31 g/ha ([8]; post-emergence, Postemergence, scale 0 to 100 (0 no effect, 100 complete control), read-out: Galium plant response rating): 85%
- pest or weed control at 62 g/ha [8, 25]: 90%
- pest or weed control at 125 g/ha [8, 25]: 95%
- pest or weed control at 125 g/ha ([8]; pre-emergence, Preemergence, read-out: Plant response rating (scale 0 to 100), Galium): 98%
- pest or weed control at 16 g/ha ([8]; pre-emergence, Preemergence, 16 g ai/ha, scale 0 to 100 (0 no effect, 100 complete control), read-out: Plant response rating, Galium): 95%
- pest or weed control at 31 g/ha [8, 26]: 98%
- pest or weed control at 62 g/ha [8, 26]: 98%
- plant injury at 250 g/ha (rice (Oryza sativa)): 40%
- pest or weed control at 250 g/ha [9]: 85%
- pest or weed control at 250 g/ha [10]: 98%
- pest or weed control at 250 g/ha [11]: 90%
